In patent publication US9925235B2, “Tilapia piscidins for use in enhancement of wound healing” (Academia Sinica, priority 2015, dated 2018):

How the values were obtained:
[1] = test system: Hs-68 human foreskin fibroblast cell line; type: cell-based
Description: An MRSA strain commonly associated with human wound infections was selected to generate a polymicrobial solution. The MRSA strain is a clinical isolate from stool obtained from Taipei City Hospital (Heping Fuyou branch). The strain was identified by routine laboratory methods and stored in 20% (vol/vol) glycerol at −80° C. Tryptic Soy Broth (TSB) was used as the culture medium. HaCaT human keratinocyte cell line and Hs-68 human foreskin fibroblast cell line were grown in DMEM containing 10% (v/v) FBS, 0.37% (w/v) NaHCO3, penicillin (100 unit/ml), streptomycin (100 μg/ml), 0.1 mM NEAA, and 1 mM sodium pyruvate at 37° C. in a humidified incubator under 5% CO2 and 95% air. The cells were harvested at ca. 90% confluence (ca. 10^6 cells/10-cm dish). Balb/c female mice were used for the experiments. All mice were housed in cages under specific pathogen-free conditions, and given water and standard laboratory chow ad libitum during the experiments. All animal handing procedures were in accordance with National Taiwan Ocean University (NTOU) guidelines. All procedures were approved by the Animal Care and Use Committee of NTOU.
Cells were cultured at a density of 5×10^4 cells per well in flat-bottomed 96-well plates. […] Cell proliferation was measured by neutral red, LDH, and MTT assay, according to the manufacturer's instructions. […]

[2] = test system: MRSA; test: Mouse model of MRSA sepsis, TP4; type: in vivo, Balb/c mice
Description: Female Balb/c mice (6-8 weeks old) were injected intraperitoneally with 10^6 CFU MRSA per mouse. Ten minutes after MRSA injection, mice were injected intraperitoneally with vancomycin (0.01 mg/g mouse body weight), methicillin (0.01 mg/g mouse body weight), or TP4 (0.005 mg/g mouse body weight). In a second set of experiments, mice were given intraperitoneal injections of TP4 (0.005 mg/g mouse body weight) at 10, 60, 120, or 180 min after MRSA injection. Survival rate and status were recorded every 24 h for up to 192 h. To examine bacterial dissemination, mice were sacrificed at 48 h after injection with antibiotics or TP4, and the bacterial numbers in blood, peritoneum, spleen, liver, and mesenteric lymph nodes were recorded. Colony counts from the diluted bacterial solutions were expressed relative to those at the start of treatment. These experiments consisted of four groups, and each group contained 10 mice.
Infected mice were untreated, or treated with TP4, methicillin, or vancomycin via i.p. injection. Bacterial numbers in blood, peritoneum, spleen, liver, and mesenteric lymph nodes were subsequently recorded. Colony counts from the diluted bacterial solutions are expressed relative to those at the start of treatment. Each value represents the mean value from three determinations±standard deviation (SD).

[3] = 48 hours after the last treatment

## Tilapia piscidin 4 (FIHHIIGGLFSAGKAIHRLIRRRRR; listed as Oreochromis niloticus) [TP4]
[1]
  cytotoxic effects: did not exhibit cytotoxic effects
[1]; Hs-68 cells, low doses, 48 h
  cell proliferation: significantly increased
[2]; [3]
  Mean ± SD count, Blood: 0^A CFU/mL
  Mean ± SD count, Liver: 2.4 × 10^4 ± 1 × 10^6A CFU/mL
  Mean ± SD count, Mesenteric lymph nodes: 6 × 10^5 ± 1 × 10^5A CFU/mL
  Mean ± SD count, Peritoneum: 1 × 10^6 ± 1 × 10^4A CFU/mL
  Mean ± SD count, Spleen: 3 × 10^6 ± 1.2 × 10^6A CFU/mL
[2]; 8 days after MRSA infection, i.p. 10 min after MRSA, TP4 0.005 mg/g, vancomycin and methicillin 0.01 mg/g
  survival rate: 100%
[2]; P<0.05
  bacterial burden in organs vs untreated controls: significantly reduced the bacterial burden in all examined organs
[2]; TP4 0.005 mg/g injected 10 min after MRSA
  survival rate: 100%
[2]; TP4 0.005 mg/g injected 60 min after MRSA
  survival rate: 80%
[2]; TP4 0.005 mg/g injected 120 min after MRSA
  survival rate: 60%
[2]; TP4 0.005 mg/g injected 180 min after MRSA
  survival rate: 50%
[2]; monitored for 2 day after injection, MRSA 10^6 CFU i.p.
  % lethality: 0^A %
